One may read the Ki as the equilibrium dissociation constant of an inhibitor or competing ligand from its target. Read a low Ki as a stronger hold on the target.

Molecules are shown by their SMILES.

The first test is described as follows: Inhibition of Clostridium histolyticum collagenase using a linear regression program.
`CC(C(=O)NO)N(Cc1ccc([N+](=O)[O-])cc1)S(=O)(=O)c1c(F)c(F)c(F)c(F)c1F` (stereo not drawn) [N-Hydroxy-2-[(4-nitro-benzyl)-pentafluorobenzenesulfonyl-amino]-propionamide] had a Ki of 5 µM.

Molecule `CC(C(=O)NO)N(Cc1ccc([N+](=O)[O-])cc1)S(=O)(=O)Cc1ccccc1` (stereo not drawn) [N-Hydroxy-2-[(4-nitro-benzyl)-phenylmethanesulfonyl-amino]-propionamide] had a Ki of 50 µM. This Ki lies about 10-fold higher than the previous one.

`CC(C(=O)NO)N(Cc1ccc([N+](=O)[O-])cc1)S(=O)(=O)C(Cl)(Cl)Cl` (stereo not drawn) [N-Hydroxy-2-[(4-nitro-benzyl)-trichloromethanesulfonyl-amino]-propionamide] showed a Ki of 52 µM.

For the molecule `CC(C(=O)NO)N(Cc1ccc([N+](=O)[O-])cc1)S(=O)(=O)C(F)(F)F` (stereo not drawn) [N-Hydroxy-2-[(4-nitro-benzyl)-trifluoromethanesulfonyl-amino]-propionamide], the Ki amounted to 75 µM.

`CC(C(=O)NO)N(Cc1ccc([N+](=O)[O-])cc1)S(=O)(=O)c1cccc2ccccc12` (stereo not drawn) [N-Hydroxy-2-[(naphthalene-1-sulfonyl)-(4-nitro-benzyl)-amino]-propionamide] had a Ki of 7 µM.

For the molecule `CC(C(=O)NO)N(Cc1ccc([N+](=O)[O-])cc1)S(=O)(=O)c1ccc2ccccc2c1` (stereo not drawn) [N-Hydroxy-2-[(naphthalene-2-sulfonyl)-(4-nitro-benzyl)-amino]-propionamide], affinity was put at a Ki of 8 µM.

`CC(C(=O)NO)N(Cc1ccc([N+](=O)[O-])cc1)S(C)(=O)=O` (stereo not drawn) [N-Hydroxy-2-[methanesulfonyl-(4-nitro-benzyl)-amino]-propionamide] yielded an inhibitory constant (Ki) of 76 µM.

As to `Cc1ccccc1S(=O)(=O)NC(=O)N(Cc1ccc([N+](=O)[O-])cc1)C(C)C(=O)NO` (stereo not drawn) [N-hydroxy-2-[({[(2-methylphenyl)sulfonyl]amino}carbonyl)(4-nitrobenzyl)amino]propanamide], affinity was put at a Ki of 8 µM.

With `Cc1ccc(S(=O)(=O)NC(=O)N(Cc2ccc([N+](=O)[O-])cc2)C(C)C(=O)NO)cc1` (stereo not drawn) [N-hydroxy-2-[({[(4-methylphenyl)sulfonyl]amino}carbonyl)(4-nitrobenzyl)amino]propanamide], the Ki is 12 µM.

With `CC(C(=O)NO)N(Cc1ccc([N+](=O)[O-])cc1)S(=O)(=O)c1cccc(NC(=O)OC(C)(C)C)c1` (stereo not drawn) [{3-[(1-Hydroxycarbamoyl-ethyl)-(4-nitro-benzyl)-sulfamoyl]-phenyl}-carbamic acid tert-butyl ester], the inhibition constant (Ki) came out at 8 µM. This Ki is about 1.5-fold lower than that of the molecule before.

`CC(C(=O)NO)N(Cc1ccc([N+](=O)[O-])cc1)S(=O)(=O)c1ccc(NC(=O)OC(C)(C)C)cc1` (stereo not drawn) [{4-[(1-Hydroxycarbamoyl-ethyl)-(4-nitro-benzyl)-sulfamoyl]-phenyl}-carbamic acid tert-butyl ester] returned a Ki of 10 µM.

`COc1ccc(S(=O)(=O)N(Cc2ccc([N+](=O)[O-])cc2)C(C)C(=O)NO)cc1NC(=O)OC(C)(C)C` (stereo not drawn) [{5-[(1-Hydroxycarbamoyl-ethyl)-(4-nitro-benzyl)-sulfamoyl]-2-methoxy-phenyl}-carbamic acid tert-butyl ester] returned an inhibition constant Ki of 8 µM.

Another test can be described thus: Inhibition of Clostridium histolyticum collagenase (ChC) using a linear regression program.
The molecule `CC(C(=O)NO)N(Cc1ccc([N+](=O)[O-])cc1)S(=O)(=O)c1ccc([N+](=O)[O-])c(Cl)c1` (stereo not drawn) [2-[(3-Chloro-4-nitro-benzenesulfonyl)-(4-nitro-benzyl)-amino]-N-hydroxy-propionamide] showed an inhibition constant Ki of 9 µM.
